Target: Voltage-dependent L-type calcium channel subunit alpha-1C (Cavia porcellus, UniProt O35505)
Experiment: Antagonist activity at calcium channel in Cavia porcellus (guinea pig) ileum assessed as inhibition of KCl-induced muscle contraction at 10 mM; call rule not given here
Format: tissue-based

Sequence of Voltage-dependent L-type calcium channel subunit alpha-1C (O35505 whole entry): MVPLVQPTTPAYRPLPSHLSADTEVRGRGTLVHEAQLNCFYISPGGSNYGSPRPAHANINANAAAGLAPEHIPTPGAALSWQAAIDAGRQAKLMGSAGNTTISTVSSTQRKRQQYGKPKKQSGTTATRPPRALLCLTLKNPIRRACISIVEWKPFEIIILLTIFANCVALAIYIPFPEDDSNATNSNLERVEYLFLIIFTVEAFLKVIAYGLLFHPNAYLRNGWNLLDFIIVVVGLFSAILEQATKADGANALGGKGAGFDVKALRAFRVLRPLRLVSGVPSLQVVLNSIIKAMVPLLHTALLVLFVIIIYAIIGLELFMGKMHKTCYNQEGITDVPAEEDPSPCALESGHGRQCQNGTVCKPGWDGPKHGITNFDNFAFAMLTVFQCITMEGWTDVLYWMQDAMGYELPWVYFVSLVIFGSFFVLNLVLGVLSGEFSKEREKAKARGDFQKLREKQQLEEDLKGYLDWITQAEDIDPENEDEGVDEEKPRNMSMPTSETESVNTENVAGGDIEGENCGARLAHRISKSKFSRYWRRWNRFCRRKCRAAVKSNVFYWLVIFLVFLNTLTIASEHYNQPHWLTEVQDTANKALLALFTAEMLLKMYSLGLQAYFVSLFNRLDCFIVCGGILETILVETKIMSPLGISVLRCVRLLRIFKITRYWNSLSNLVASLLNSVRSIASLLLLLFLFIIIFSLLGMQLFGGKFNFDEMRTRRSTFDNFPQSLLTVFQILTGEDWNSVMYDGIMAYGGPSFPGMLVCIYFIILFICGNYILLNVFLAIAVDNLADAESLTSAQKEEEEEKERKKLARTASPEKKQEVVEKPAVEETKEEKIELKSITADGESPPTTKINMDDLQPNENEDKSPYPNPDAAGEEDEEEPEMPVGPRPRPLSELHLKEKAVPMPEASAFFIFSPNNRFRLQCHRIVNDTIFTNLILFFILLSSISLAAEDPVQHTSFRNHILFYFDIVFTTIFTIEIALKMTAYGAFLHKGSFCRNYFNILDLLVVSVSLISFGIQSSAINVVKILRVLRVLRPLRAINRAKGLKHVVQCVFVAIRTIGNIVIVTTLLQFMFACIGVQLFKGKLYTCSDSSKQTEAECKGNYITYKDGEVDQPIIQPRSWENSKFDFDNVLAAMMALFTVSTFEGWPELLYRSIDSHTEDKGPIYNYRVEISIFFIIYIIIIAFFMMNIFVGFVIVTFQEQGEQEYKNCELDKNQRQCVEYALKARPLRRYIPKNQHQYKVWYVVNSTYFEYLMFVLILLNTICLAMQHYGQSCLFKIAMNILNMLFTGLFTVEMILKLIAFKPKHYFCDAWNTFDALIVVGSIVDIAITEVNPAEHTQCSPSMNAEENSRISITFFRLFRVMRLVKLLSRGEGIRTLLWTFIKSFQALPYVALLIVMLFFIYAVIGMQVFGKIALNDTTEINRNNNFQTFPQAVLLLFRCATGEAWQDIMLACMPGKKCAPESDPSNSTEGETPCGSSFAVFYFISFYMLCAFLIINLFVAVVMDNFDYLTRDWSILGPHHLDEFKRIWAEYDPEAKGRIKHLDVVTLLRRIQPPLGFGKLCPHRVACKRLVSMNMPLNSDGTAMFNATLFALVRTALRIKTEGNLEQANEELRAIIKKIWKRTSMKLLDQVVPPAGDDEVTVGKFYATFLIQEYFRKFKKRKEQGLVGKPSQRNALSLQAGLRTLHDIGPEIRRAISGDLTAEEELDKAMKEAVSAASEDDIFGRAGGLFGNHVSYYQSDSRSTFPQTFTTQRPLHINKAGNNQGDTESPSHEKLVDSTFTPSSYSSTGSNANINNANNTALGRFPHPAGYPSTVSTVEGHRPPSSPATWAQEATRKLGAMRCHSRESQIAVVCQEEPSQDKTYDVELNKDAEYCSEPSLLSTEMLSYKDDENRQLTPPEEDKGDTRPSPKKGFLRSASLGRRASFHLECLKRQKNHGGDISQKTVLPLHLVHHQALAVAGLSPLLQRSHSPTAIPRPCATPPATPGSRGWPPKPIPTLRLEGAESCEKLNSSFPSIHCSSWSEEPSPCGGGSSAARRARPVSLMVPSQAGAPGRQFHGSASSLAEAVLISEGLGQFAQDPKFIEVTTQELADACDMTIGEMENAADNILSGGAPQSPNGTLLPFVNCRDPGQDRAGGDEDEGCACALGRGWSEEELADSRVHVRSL

COC(=O)C1=C(C)NC(C)=C(C(=O)OC)C1c1ccccc1[N+](=O)[O-] [NIFEDIPINE]
inhibition (INH): Active
